Assays:
Type in all cases: biochemical
PLK3 = PLK3 (Homo sapiens, UniProt Q9H4B4); assay: PLK TR-FRET peptide assay, PLK3; settings: GST-PLK3, 15 min reaction, read-out: Plk3 IC50
PLK2 = PLK2 (Homo sapiens, UniProt Q9NYY3); assay: PLK TR-FRET peptide assay, PLK2; settings: PLK TR-FRET peptide assay, GST-PLK2, 60 min reaction; read-out: Plk2 IC50
PLK1 = PLK1 (Homo sapiens, UniProt P53350); assay: PLK TR-FRET peptide assay, PLK1; settings: GST-PLK1, 60 min reaction
PLK1, sequence (P53350 whole entry): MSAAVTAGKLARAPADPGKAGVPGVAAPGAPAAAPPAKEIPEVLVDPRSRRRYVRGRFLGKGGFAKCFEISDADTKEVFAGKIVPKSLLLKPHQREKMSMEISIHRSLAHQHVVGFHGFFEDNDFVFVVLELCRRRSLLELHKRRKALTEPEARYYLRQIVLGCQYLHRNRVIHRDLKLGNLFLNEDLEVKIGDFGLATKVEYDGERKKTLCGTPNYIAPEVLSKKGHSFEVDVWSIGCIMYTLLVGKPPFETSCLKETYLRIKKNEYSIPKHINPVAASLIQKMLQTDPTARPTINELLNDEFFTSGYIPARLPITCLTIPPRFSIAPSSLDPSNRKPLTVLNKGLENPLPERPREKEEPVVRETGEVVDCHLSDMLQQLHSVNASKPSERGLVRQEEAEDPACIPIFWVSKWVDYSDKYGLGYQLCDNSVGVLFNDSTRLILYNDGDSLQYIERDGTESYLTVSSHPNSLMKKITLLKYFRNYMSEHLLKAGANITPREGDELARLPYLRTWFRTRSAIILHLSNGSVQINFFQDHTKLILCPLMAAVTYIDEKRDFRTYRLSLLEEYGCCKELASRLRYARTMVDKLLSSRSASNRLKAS

PLK2, sequence (Q9NYY3 whole entry): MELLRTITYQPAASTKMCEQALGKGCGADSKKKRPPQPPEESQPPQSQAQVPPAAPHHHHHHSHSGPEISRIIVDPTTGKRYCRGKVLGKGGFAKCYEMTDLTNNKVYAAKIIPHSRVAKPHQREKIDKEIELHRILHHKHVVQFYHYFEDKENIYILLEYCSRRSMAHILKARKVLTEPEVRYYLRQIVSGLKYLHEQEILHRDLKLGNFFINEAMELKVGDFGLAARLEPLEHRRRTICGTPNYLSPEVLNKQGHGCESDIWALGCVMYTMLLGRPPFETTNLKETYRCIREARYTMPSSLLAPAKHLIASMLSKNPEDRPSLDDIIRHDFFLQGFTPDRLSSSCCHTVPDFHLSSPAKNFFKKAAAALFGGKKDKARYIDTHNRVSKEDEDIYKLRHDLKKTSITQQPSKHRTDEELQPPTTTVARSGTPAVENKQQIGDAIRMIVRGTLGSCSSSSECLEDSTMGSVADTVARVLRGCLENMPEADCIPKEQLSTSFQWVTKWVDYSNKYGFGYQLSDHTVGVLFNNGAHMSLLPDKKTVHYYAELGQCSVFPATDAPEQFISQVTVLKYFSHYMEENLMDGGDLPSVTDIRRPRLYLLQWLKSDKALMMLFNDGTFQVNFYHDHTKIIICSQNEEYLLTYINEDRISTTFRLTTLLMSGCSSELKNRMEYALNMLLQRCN
PLK3, sequence (Q9H4B4 whole entry): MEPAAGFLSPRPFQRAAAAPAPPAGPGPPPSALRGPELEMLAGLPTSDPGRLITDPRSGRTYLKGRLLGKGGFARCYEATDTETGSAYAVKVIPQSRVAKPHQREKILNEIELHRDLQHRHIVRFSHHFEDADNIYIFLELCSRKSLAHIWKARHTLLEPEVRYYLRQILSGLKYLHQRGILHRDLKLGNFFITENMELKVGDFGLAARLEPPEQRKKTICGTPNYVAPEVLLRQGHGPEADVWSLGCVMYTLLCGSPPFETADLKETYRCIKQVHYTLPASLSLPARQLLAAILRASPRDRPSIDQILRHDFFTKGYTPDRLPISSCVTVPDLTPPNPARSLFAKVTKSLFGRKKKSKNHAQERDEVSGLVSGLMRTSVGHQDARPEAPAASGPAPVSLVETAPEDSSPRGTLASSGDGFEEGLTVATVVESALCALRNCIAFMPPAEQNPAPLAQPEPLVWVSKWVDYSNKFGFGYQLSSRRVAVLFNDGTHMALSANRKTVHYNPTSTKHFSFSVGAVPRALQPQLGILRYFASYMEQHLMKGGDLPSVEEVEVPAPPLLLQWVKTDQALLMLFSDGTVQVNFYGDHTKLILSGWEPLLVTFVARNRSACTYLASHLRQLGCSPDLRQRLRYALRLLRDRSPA

CC[C@]1(C)C(=O)N(C)c2cnc(-c3cn[nH]c3-c3nccs3)nc2N1CCC(F)(F)F [Example 310, (R)-7-ethyl-5,7-dimethyl-2-(5-(thiazol-2-yl)-1H-pyrazol-4-yl)-8-(3,3,3-trifluoropropyl)-7,8-dihydropteridin-6(5H)-one]
IC50 (PLK3): > 50 µM
IC50 (PLK2): < 1 µM
IC50 (PLK1): < 1 µM

CC[C@@]12CCC(=O)N1c1nc(-n3ccnc3)ncc1N(C)C2=O [Example 311, (S)-6a-ethyl-2-(1H-imidazol-1-yl)-5-methyl-7,8-dihydropyrrolo[2,1-h]pteridine-6,9(5H,6aH)-dione]
IC50 (PLK3): > 50 µM
IC50 (PLK2): > 50 µM
IC50 (PLK1): > 50 µM

CC[C@@H]1C(=O)N(C)c2cnc(-c3cn[nH]c3-c3ccc(F)cc3F)nc2N1C(C)C [Example 312, (R)-2-(5-(2,4-difluorophenyl)-1H-pyrazol-4-yl)-7-ethyl-8-isopropyl-5-methyl-7,8-dihydropteridin-6(5H)-one]
IC50 (PLK3): < 1 µM
IC50 (PLK2): < 1 µM
IC50 (PLK1): < 1 µM

CC[C@@H]1C(=O)N(C)c2cnc(-c3cn[nH]c3-c3ccccn3)nc2N1C(C)C [Example 313, (R)-7-ethyl-8-isopropyl-5-methyl-2-(5-(pyridin-2-yl)-1H-pyrazol-4-yl)-7,8-dihydropteridin-6(5H)-one]
IC50 (PLK3): 1 to 10 µM
IC50 (PLK2): < 1 µM
IC50 (PLK1): 1 to 10 µM

CC[C@@]12CCCN1c1nc(-c3nccnc3-c3ccccc3)ncc1N(C)C2=O [Example 316, (S)-6a-ethyl-5-methyl-2-(3-phenylpyrazin-2-yl)-6a,7,8,9-tetrahydropyrrolo[2,1-h]pteridin-6(5H)-one]
IC50 (PLK3): 1 to 10 µM
IC50 (PLK2): 1 to 10 µM
IC50 (PLK1): 10 to 50 µM

CC[C@@H]1C(=O)N(C)c2cnc(-c3cn[nH]c3-c3cscn3)nc2N1C(C)C [Example 320, (R)-7-ethyl-8-isopropyl-5-methyl-2-(5-(thiazol-4-yl)-1H-pyrazol-4-yl)-7,8-dihydropteridin-6(5H)-one]
IC50 (PLK3): 1 to 10 µM
IC50 (PLK2): < 1 µM
IC50 (PLK1): 1 to 10 µM

CC[C@@H]1C(=O)N(C)c2cnc(-n3ccnc3-c3ccc(F)cc3)nc2N1CC1CC1 [Example 322, (R)-8-(cyclopropylmethyl)-7-ethyl-2-(2-(4-fluorophenyl)-1H-imidazol-1-yl)-5-methyl-7,8-dihydropteridin-6(5H)-one]
IC50 (PLK3): 1 to 10 µM
IC50 (PLK2): < 1 µM
IC50 (PLK1): 1 to 10 µM

CC[C@@H]1CC[C@@]2(CC)C(=O)N(C)c3cnc(-n4ccnc4C)nc3N12 [Example 325, (6aS,9R)-6a,9-diethyl-5-methyl-2-(2-methyl-1H-imidazol-1-yl)-6a,7,8,9-tetrahydropyrrolo[2,1-h]pteridin-6(5H)-one]
IC50 (PLK3): 10 to 50 µM
IC50 (PLK2): 1 to 10 µM
IC50 (PLK1): 10 to 50 µM

CN1C(=O)C2(CC(F)(F)F)CCCN2c2nc(-n3ccnc3)ncc21 (stereo not drawn) [Example 329, 2-(1H-imidazol-1-yl)-5-methyl-6a-(2,2,2-trifluoroethyl)-6a,7,8,9-tetrahydropyrrolo[2,1-h]pteridin-6(5H)-one]
IC50 (PLK3): 10 to 50 µM
IC50 (PLK2): 10 to 50 µM
IC50 (PLK1): 10 to 50 µM

CC[C@@H]1C(=O)N(C)c2cnc(-c3nccs3)nc2N1C1CCCC1 [Example 330, (R)-8-cyclopentyl-7-ethyl-5-methyl-2-(thiazol-2-yl)-7,8-dihydropteridin-6(5H)-one]
IC50 (PLK3): 10 to 50 µM
IC50 (PLK2): < 1 µM
IC50 (PLK1): 1 to 10 µM

CCC1C(=O)N(C)c2cnc(-n3ccnc3)nc2N1c1cccc(-c2cncnc2)c1 (stereo not drawn) [Example 333, 7-ethyl-2-(1H-imidazol-1-yl)-5-methyl-8-(3-(pyrimidin-5-yl)phenyl)-7,8-dihydropteridin-6(5H)-one]
IC50 (PLK3): > 50 µM
IC50 (PLK2): 10 to 50 µM
IC50 (PLK1): 10 to 50 µM

CC[C@@H]1CC[C@@]2(CC)C(=O)N(C)c3cnc(-n4ccnc4)nc3N12 [Example 334, (6aS,9R)-6a,9-diethyl-2-(1H-imidazol-1-yl)-5-methyl-6a,7,8,9-tetrahydropyrrolo[2,1-h]pteridin-6(5H)-one]
IC50 (PLK3): 10 to 50 µM
IC50 (PLK2): 1 to 10 µM
IC50 (PLK1): 1 to 10 µM

From US8541418B2, “Inhibitors of polo-like kinase” (Elan Pharmaceutical, Inc., priority 2009, dated 2013)
